Source: US20240409531A1, “BENZOXAZINONE DERIVATIVES AS SELECTIVE CYTOTOXIC AGENTS” (Merck Sharp & Dohme LLC, priority 2021, published 2024)

What follows are compounds tested on PBMCs infected with VSV-G pseudotyped HIV virus (VSV-G/pNLGI-P2A-ΔEnv) (assay: cells). Details: Homo sapiens, PBMC, read-out: TACK EC50 (nM).
Format: cell-based
For `CC(F)(F)[C@@]1(C#CC2CC2)OC(=O)Nc2cc(Cc3ccnc(N)c3C#N)ccc21` [Example 35, (S)-2-amino-4-((4-(cyclopropylethynyl)-4-(1,1-difluoroethyl)-2-oxo-1,4-dihydro-2H-benzo[d][1,3]oxazin-7-yl)methyl)nicotinonitrile], the EC50 was 20 nM. In the case of `CC(F)(F)[C@@]1(C#CC2CC2)OC(=O)Nc2cc(Cc3ccnc(N)c3C#N)c(F)cc21` [Example 36, (S)-2-amino-4-((4-(cyclopropylethynyl)-4-(1,1-difluoroethyl)-6-fluoro-2-oxo-1,4-dihydro-2H-benzo[d][1,3]oxazin-7-yl)methyl)nicotinonitrile], the EC50 is reported as 18 nM. For `CC(F)(F)[C@@]1(C#CC2CC2)OC(=O)Nc2cc(Cc3ccnc(N)n3)ccc21` [Example 37, (S)-7-((2-aminopyrimidin-4-yl)methyl)-4-(cyclopropylethynyl)-4-(1.1-difluoroethyl)-1.4-dihydro-2H-benzo[d][1.3]oxazin-2-one], the EC50 was 43 nM. Compound `Nc1nccc(Cc2cc3c(cc2Cl)[C@@](C#CC2CC2)(C(F)(F)F)OC(=O)N3)n1` [Example 38, (S)-7-((2-aminopyrimidin-4-yl)methyl)-6-chloro-4-(cyclopropylethynyl)-4-(trifluoromethyl)-1,4-dihydro-2H-benzo[d][1,3]oxazin-2-one] has an EC50 of 149 nM. For `CC(F)(F)[C@@]1(C#CC2CC2)OC(=O)Nc2cc(Cc3ccnc(N)n3)c(F)cc21` [Example 39, (S)-7-((2-aminopyrimidin-4-yl)methyl)-4-(cyclopropylethynyl)-4-(1,1-difluoroethyl)-6-fluoro-1,4-dihydro-2H-benzo[d][1,3]oxazin-2-one], the EC50 was 16 nM. `CC(F)(F)[C@@]1(C#CC2CC2)OC(=O)Nc2cc(Cc3ccnc(N)n3)c(Cl)cc21` [Example 40, (S)-7-((2-aminopyrimidin-4-yl)methyl)-6-chloro-4-(cyclopropylethynyl)-4-(1,1-difluoroethyl)-1,4-dihydro-2H-benzo[d][1,3]oxazin-2-one] was tested, and the EC50 was 65 nM.
